The source of these data is ChEMBL document CHEMBL1777767, “Efficient radiosynthesis of 2-[(18)f]fluoroadenosine: a new route to 2-[(18)f]fluoropurine nucleosides” (ACS Med Chem Lett, 2010).

Common to all, as to type: ADME, organism-based
What all share (settings): in vivo, 1 h

In one data set the test system is Spleen. The data set can be described thus: Biodistribution in Sprague-Dawley rat spleen at 10.36 to 13.69 MBq, iv after 60 mins by gamma counting.
A further data set relates to Heart. In words: Biodistribution in Sprague-Dawley rat heart at 10.36 to 13.69 MBq, iv after 60 mins by gamma counting.
In the next data set the test system is Blood. In words: Biodistribution in Sprague-Dawley rat blood at 10.36 to 13.69 MBq, iv after 60 mins by gamma counting.
Another data set relates to Kidney. The data set can be described thus: Biodistribution in Sprague-Dawley rat kidney at 10.36 to 13.69 MBq, iv after 60 mins by gamma counting.
The test system of another data set is Thymus. The data set can be described thus: Biodistribution in Sprague-Dawley rat thymus at 10.36 to 13.69 MBq, iv after 60 mins by gamma counting.
Another data set deals with Intestine. The data set can be described thus: Biodistribution in Sprague-Dawley rat intestine at 10.36 to 13.69 MBq, iv after 60 mins by gamma counting.
Another data set deals with Liver. In words: Biodistribution in Sprague-Dawley rat liver at 10.36 to 13.69 MBq, iv after 60 mins by gamma counting.
In another data set the test system is Lung. The data set can be described thus: Biodistribution in Sprague-Dawley rat lung at 10.36 to 13.69 MBq, iv after 60 mins by gamma counting.
The nature of data set [1]: Biodistribution in Sprague-Dawley rat urine at 10.36 to 13.69 MBq, iv after 60 mins by gamma counting.
For a further data set, the system named is Brain. In words: Biodistribution in Sprague-Dawley rat brain at 10.36 to 13.69 MBq, iv after 60 mins by gamma counting.

Take `Nc1nc([18F])nc2c1ncn2[C@@H]1O[C@H](CO)[C@@H](O)[C@H]1O`: the Drug uptake in the data set with Spleen was determined as 2.85 % ID/g; in the data set with Heart, 3.22 % ID/g; with Blood, 0.47 % ID/g; in the data set with Kidney, 3.75 % ID/g; in the data set on Thymus, 0.65 % ID/g; with Intestine, 1.45 % ID/g. In addition, the Drug uptake is 0.72 % ID/g in the data set on Liver, 9.15 % ID/g with Lung, 6.7 % ID/g in [1] and 0.06 % ID/g with Brain.
